Test results: publication PMC6009853, “Inhibition studies on a panel of human carbonic anhydrases with N1-substituted secondary sulfonamides incorporating thiazolinone or imidazolone-indole tails” (Journal of Enzyme Inhibition and Medicinal Chemistry, 2018)
Like-named read-outs stand apart in the source and are kept apart here.

Assays:
hCA II = molecular target: T1, hCA II (Homo sapiens, UniProt P00918); assay: stopped-flow CO2 hydrase assay; type: biochemical
T1 construct: gene CA2; recombinant, obtained in-house
From the text: stopped-flow CO2 hydrase assay on hCA II

hCA IV = molecular target: T2, hCA IV (Homo sapiens, UniProt P22748); assay: stopped-flow CO2 hydrase assay; type: biochemical
T2 construct: gene CA4; recombinant, obtained in-house; membrane-associated isoform

hCA IX [1] = molecular target: T3, hCA IX (Homo sapiens, UniProt Q16790); assay: stopped-flow CO2 hydrase assay; type: biochemical
T3 construct: gene CA9; recombinant, obtained in-house; tumour-associated isoform
From the text: stopped-flow CO2 hydrase assay on hCA IX

hCA I = molecular target: T4, hCA I (Homo sapiens, UniProt P00915); assay: stopped-flow CO2 hydrase assay; type: biochemical
T4 construct: gene CA1; recombinant, obtained in-house; cytosolic
From the text: stopped-flow CO2 hydrase assay on hCA I

hCA IX [2] = molecular target: T3, hCA IX; assay: stopped-flow CO2 hydrase assay; type: biochemical; conditions: read-out: hCA I
[3] = stopped-flow CO2 hydrase assay; type: biochemical, Homo sapiens; conditions: read-out: hCA I

T4 sequence (P00915 2-261): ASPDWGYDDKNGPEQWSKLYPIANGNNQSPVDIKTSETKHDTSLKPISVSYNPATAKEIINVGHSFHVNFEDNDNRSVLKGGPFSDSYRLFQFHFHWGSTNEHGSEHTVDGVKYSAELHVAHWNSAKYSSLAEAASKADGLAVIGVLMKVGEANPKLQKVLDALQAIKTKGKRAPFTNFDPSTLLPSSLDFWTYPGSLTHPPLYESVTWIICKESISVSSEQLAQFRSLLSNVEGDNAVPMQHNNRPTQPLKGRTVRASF
T2 sequence (P22748 19-284): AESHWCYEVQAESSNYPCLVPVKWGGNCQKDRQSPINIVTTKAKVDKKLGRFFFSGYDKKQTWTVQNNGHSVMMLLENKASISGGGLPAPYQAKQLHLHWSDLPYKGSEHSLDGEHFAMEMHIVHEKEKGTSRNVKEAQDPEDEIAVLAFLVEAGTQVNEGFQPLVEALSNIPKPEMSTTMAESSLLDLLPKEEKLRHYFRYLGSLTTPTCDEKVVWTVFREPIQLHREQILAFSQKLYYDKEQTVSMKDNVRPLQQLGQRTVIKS

| Structure (SMILES) | Ki (hCA II) [µM] | Ki (hCA IV; read-out: hCA IV) [µM] | Ki (hCA IX [1]) [µM] | Ki (hCA I) [µM] | Ki (hCA IV; read-out: hCA II) [µM] | Ki (hCA IX [2]) [µM] | Ki [3] [µM] |
| --- | --- | --- | --- | --- | --- | --- | --- |
| N=C(N)NS(=O)(=O)c1ccc(NC2=NC(=O)C(=Cc3c[nH]c4ccccc34)S2)cc1 [7f, 4-{[5-((1H-indol-3-yl)methylene)-4-oxo-4,5-dihydrothiazol-2-yl]amino}-N-carbamimidoyl benzenesulfonamide] | 7.18 | > 10 | 1.4 | 9.07 |  |  |  |
| CC(=O)NS(=O)(=O)c1ccc(NC2=NC(=O)C(=Cc3c[nH]c4ccccc34)S2)cc1 [7b, N-{[4-((5-((1H-indol-3-yl)methylene)-4-oxo-4,5-dihydrothiazol-2-yl)amino)phenyl]sulfonyl} acetamide] | > 10 |  | 0.778 | 7.98 | > 10 |  |  |
| O=S(=O)(Nc1nccs1)c1ccc(N=Cc2c[nH]c3ccccc23)cc1 [4e] |  | > 10 |  | > 10 |  | > 10 | > 10 |
| CC(=O)NS(=O)(=O)c1ccc(N=Cc2c[nH]c3ccccc23)cc1 [4b, N-{[4-(((1H-indol-3-yl)methylene)amino)phenyl]sulfonyl}acetamide] | > 10 |  | 1.62 | 8.58 | > 10 |  |  |
| O=C1N=C(Nc2ccc(S(=O)(=O)Nc3ncccn3)cc2)SC1=Cc1c[nH]c2ccccc12 [7c] |  | > 10 |  | > 10 |  | > 10 | > 10 |
| O=S(=O)(Nc1ncccn1)c1ccc(N=Cc2c[nH]c3ccccc23)cc1 [4c] |  | > 10 |  | > 10 |  | > 10 | > 10 |
| NS(=O)(=O)c1ccc(N=Cc2c[nH]c3ccccc23)cc1 [4a, 4-{[(1H-indol-3-yl)methylene]amino}benzenesulfonamide] | 0.576 | 2.74 | 0.327 | 0.0885 |  |  |  |
| N=C(N)NS(=O)(=O)c1ccc(N=Cc2c[nH]c3ccccc23)cc1 [4f, 4-{[(1H-indol-3-yl)methylene]amino}-N-carbamimidoylbenzenesulfonamide] | 8.29 | > 10 | 1.31 | 7.53 |  |  |  |
| NS(=O)(=O)c1ccc(NC2=NC(=O)C(=Cc3c[nH]c4ccccc34)S2)cc1 [7a, 4-{[5-((1H-indol-3-yl)methylene)-4-oxo-4,5-dihydrothiazol-2-yl]amino}benzenesulfonamide] | 0.0764 | 4.43 | 0.308 | 0.0964 |  |  |  |
| O=S(=O)(Nc1ccccn1)c1ccc(N=Cc2c[nH]c3ccccc23)cc1 [4d] |  | > 10 |  | > 10 |  | > 10 | > 10 |
| O=C1N=C(Nc2ccc(S(=O)(=O)Nc3ccccn3)cc2)SC1=Cc1c[nH]c2ccccc12 [7d] |  | > 10 |  | > 10 |  | > 10 | > 10 |
| O=C1N=C(Nc2ccc(S(=O)(=O)Nc3nccs3)cc2)SC1=Cc1c[nH]c2ccccc12 [7e, 4-{[(5-((1H-indol-3-yl)methylene)-4-oxo-4,5-dihydrothiazol-2-yl)amino]-N-(thiazol-2-yl)] benzenesulfonamide] |  | > 10 |  | > 10 |  | > 10 | > 10 |

Continued, values first:

| Ki (hCA II) [µM] | Ki (hCA IV; read-out: hCA IV) [µM] | Ki (hCA IX [1]) [µM] | Ki (hCA I) [µM] | Ki (hCA IV; read-out: hCA II) [µM] | Ki (hCA IX [2]) [µM] | Ki [3] [µM] | Structure (SMILES) |
| --- | --- | --- | --- | --- | --- | --- | --- |
|  | > 10 |  | > 10 |  | > 10 | > 10 | CC(=O)n1cc(C=C2N=C(c3ccccc3)N(c3ccc(S(=O)(=O)Nc4nccs4)cc3)C2=O)c2ccccc21 [10e, 4-[4-((1-Acetyl-1H-indol-3-yl)methylene)-5-oxo-2-phenyl-4,5-dihydro-1H-imidazol-1-yl]-N-(thiazol-2-yl)benzenesulfonamide] |
|  | > 10 |  | > 10 |  | > 10 | > 10 | COc1ccc(C2=NC(=Cc3cn(C(C)=O)c4ccccc34)C(=O)N2c2ccc(S(=O)(=O)Nc3nccs3)cc2)cc1 [10k, 4-[4-((1-Acetyl-1H-indol-3-yl)methylene)-2–(4-methoxyphenyl)-5-oxo-4,5-dihydro-1H-imidazol-1-yl]-N-(thiazol-2-yl)benzenesulfonamide] |
|  | > 10 | 1.47 |  |  |  |  | CC(=O)NS(=O)(=O)c1ccc(N2C(=O)C(=Cc3cn(C(C)=O)c4ccccc34)N=C2c2ccccc2)cc1 [10b, N-[(4–(4-((1-acetyl-1H-indol-3-yl)methylene)-5-oxo-2-phenyl-4,5-dihydro-1H-imidazol-1-yl)phenyl)sulfonyl]acetamide] |
| 0.602 | 2.77 | 0.328 | 0.0937 |  |  |  | COc1ccc(C2=NC(=Cc3cn(C(C)=O)c4ccccc34)C(=O)N2c2ccc(S(N)(=O)=O)cc2)cc1 [10g, 4-[4-((1-Acetyl-1H-indol-3-yl)methylene)-2–(4-methoxyphenyl)-5-oxo-4,5-dihydro-1H-imidazol-1-yl]benzenesulfonamide] |
|  | > 10 |  | > 10 |  | > 10 | > 10 | COc1ccc(C2=NC(=Cc3cn(C(C)=O)c4ccccc34)C(=O)N2c2ccc(S(=O)(=O)Nc3ncccn3)cc2)cc1 [10i, 4-[4-((1-Acetyl-1H-indol-3-yl)methylene)-2–(4-methoxyphenyl)-5-oxo-4,5-dihydro-1H-imidazol-1-yl]-N-(pyrimidin-2-yl)benzenesulfonamide] |
| 3.82 | > 10 | 1.64 | 5.76 |  |  |  | CC(=O)n1cc(C=C2N=C(c3ccccc3)N(c3ccc(S(=O)(=O)N=C(N)N)cc3)C2=O)c2ccccc21 [10f, 4-[4-((1-Acetyl-1H-indol-3-yl)methylene)-5-oxo-2-phenyl-4,5-dihydro-1H-imidazol-1-yl]-N-carbamimidoylbenzenesulfonamide] |
|  | > 10 |  | > 10 |  | > 10 | > 10 | CC(=O)n1cc(C=C2N=C(c3ccccc3)N(c3ccc(S(=O)(=O)Nc4ccccn4)cc3)C2=O)c2ccccc21 [10d] |
|  | 0.263 | 0.318 |  |  |  |  | CC(=O)n1cc(C=C2N=C(c3ccccc3)N(c3ccc(S(N)(=O)=O)cc3)C2=O)c2ccccc21 [10a, 4-[4-((1-Acetyl-1H-indol-3-yl)methylene)-5-oxo-2-phenyl-4,5-dihydro-1H-imidazol-1-yl]benzenesulfonamide] |
|  | > 10 |  | > 10 |  | > 10 | > 10 | COc1ccc(C2=NC(=Cc3cn(C(C)=O)c4ccccc34)C(=O)N2c2ccc(S(=O)(=O)Nc3ccccn3)cc2)cc1 [10j, 4-[4-((1-Acetyl-1H-indol-3-yl)methylene)-2–(4-methoxyphenyl)-5-oxo-4,5-dihydro-1H-imidazol-1-yl]-N-(pyridin-2-yl)benzenesulfonamide] |
|  | > 10 |  | > 10 |  | > 10 | > 10 | CC(=O)n1cc(C=C2N=C(c3ccccc3)N(c3ccc(S(=O)(=O)Nc4ncccn4)cc3)C2=O)c2ccccc21 [10c, 4-[4-((1-Acetyl-1H-indol-3-yl)methylene)-5-oxo-2-phenyl-4,5-dihydro-1H-imidazol-1-yl]-N-(pyrimidin-2-yl)benzenesulfonamide] |
| 0.549 | 3.05 | 1.4 | 5.72 |  |  |  | COc1ccc(C2=NC(=Cc3cn(C(C)=O)c4ccccc34)C(=O)N2c2ccc(S(=O)(=O)NC(C)=O)cc2)cc1 [10h, N-[(4–(4-((1-acetyl-1H-indol-3-yl)methylene)-2–(4-methoxyphenyl)-5-oxo-4,5-dihydro-1H-imidazol-1-yl)phenyl)sulfonyl]acetamide] |
| > 10 |  | 1.21 | 6.9 | > 10 |  |  | COc1ccc(C2=NC(=Cc3cn(C(C)=O)c4ccccc34)C(=O)N2c2ccc(S(=O)(=O)NC(=N)N)cc2)cc1 [10l, 4-[4-((1-Acetyl-1H-indol-3-yl)methylene)-2–(4-methoxyphenyl)-5-oxo-4,5-dihydro-1H-imidazol-1-yl]-N-carbamimidoylbenzenesulfonamide] |
